Consider five molecules from US20260234180A1, “AMINO ACID DERIVATIVE, PREPARATION METHOD THEREFOR, AND PHARMACEUTICAL COMPOSITION FOR TREATING HEPATITIS, COMPRISING SAME” (priority 2021, published 2026).

Data set [1] deals with T1, NTCP (Na+ taurocholate cotransporting peptide), HepG2-hNTCP-C4 cell line (Homo sapiens, UniProt Q14973).
T1 construct: expressed in transfected cells; host or cells: HepG2-hNTCP-C4 (HepG2 cells expressing human NTCP)
T1 sequence (Q14973 1-349): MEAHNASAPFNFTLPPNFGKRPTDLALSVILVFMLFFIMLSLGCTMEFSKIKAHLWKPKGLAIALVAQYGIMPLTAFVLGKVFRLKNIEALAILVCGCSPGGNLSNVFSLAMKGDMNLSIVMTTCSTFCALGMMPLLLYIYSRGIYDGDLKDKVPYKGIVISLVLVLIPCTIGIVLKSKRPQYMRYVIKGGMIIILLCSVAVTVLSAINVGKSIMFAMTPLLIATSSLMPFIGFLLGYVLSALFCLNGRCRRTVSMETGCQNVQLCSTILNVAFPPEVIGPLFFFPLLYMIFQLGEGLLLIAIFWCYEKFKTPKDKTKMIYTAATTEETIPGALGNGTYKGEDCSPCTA
Briefly: Inhibition of binding between FITC-labelled PreS1 and NTCP expressing cell line, flow cytometry. The settings on record: for ability to inhibit the binding between PreS1 and NTCP expressing cell lines (bile acid series) / relative fluorescence intensity compared to Comparative Example 1 (LCA): compound 50 µM; for ability to inhibit the binding between PreS1 and NTCP expressing cell lines (bile acid series) / effect of inhibiting the binding between PreS1 and NTCP expressing cell lines by treatment concentration: 20 nM PreS1; for effect of inhibiting the binding between PreS1 and NTCP expressing cell lines by treatment concentration: 0.2 μM, 2 μM, 10 μM, 50 μM; for relative fluorescence intensity compared to Comparative Example 1 (LCA): 20 nM PreS1, 4° C., 2 hours, lower = more inhibited binding. The method in brief:
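HepG2-hNTCP-C4 cells were pre-chilled at 4 °C for 30 min, then exposed to 20 nM Myr-PreS1-Lys(FITC) plus compound at 4 °C for 2 h, mostly at 50 μM, with some series at 0.2–50 μM or 2–50 μM. After washes and EDTA detachment, cell-bound green fluorescence was read by flow cytometry.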
(In flow cytometry, cells or beads pass a laser one at a time.)

In the next data set the test system is Jurkat cell line. Briefly: Cytotoxicity, WST-1 cell viability. Format: cell-based, human. As to conditions: 0.2 μM~50 μM, 24 and 48 hours. As to the method: For Example 1 (LCA-Ile), Example 44 (LCA-Val), Example 2 (UDCA-Ile), and Example 3 (UDCA-Val), cytotoxicity was evaluated in the Jurkat cell line, a human T lymphocyte-derived cell line. Jurkat cell lines were seeded at a density of 5×10^4 on a 96 well plate for overnight incubation, and each compound was treated at a concentration of 0.2 μM~50 μM for 24 or 48 hours. WST-1, a reagent for measuring cell viability, was loaded at 10 μl/well, and absorbance was measured at 440 nm using a microplate reader 2 hours later. The mean value of negative control (NC) group treated with only DMSO was calculated as 1 and the cytotoxicity for the remaining experimental group was evaluated.
(Formazan colour is commonly taken as a measure of viable cells.)

Each structure is given as a SMILES string.

`CC[C@@H](C)[C@H](NC(=O)CC[C@@H](C)[C@H]1CC[C@H]2[C@@H]3CC[C@@H]4C[C@H](O)CC[C@]4(C)[C@H]3C[C@H](O)[C@]12C)C(=O)O` [Example 10, (2S,3R)-2-((R)-4-((3R,5R,8R,9S,10S,12S,13R,14S,17R)-3,12-dihydroxy-10,13-dimethyl-hexadecahydro-1H-cyclopenta[a]phenanthren-17-yl)pentanamido)-3-methylpentanoic acid]: the “ability to inhibit the binding between PreS1 and NTCP expressing cell lines (bile acid series)” value in data set [1] was “relatively excellent”.
For the molecule `CC[C@@H](C)[C@H](NC(=O)CC[C@@H](C)[C@H]1CC[C@H]2[C@@H]3[C@@H](O)C[C@@H]4C[C@H](O)CC[C@]4(C)[C@H]3CC[C@]12C)C(=O)O` [Example 2, (2S,3R)-2-((R)-4-((3R,5S,7S,8R,9S,10S,13R,14S,17R)-3,7-dihydroxy-10,13-dimethyl-hexadecahydro-1H-cyclopenta[a]phenanthren-17-yl)pentanamido)-3-methylpentanoic acid], the “ability to inhibit the binding between PreS1 and NTCP expressing cell lines (bile acid series)” value in data set [1] is “relatively excellent”. Also, the cytotoxicity entry with Jurkat cell line is reported as “barely observed”.
In the case of `CC(C)[C@H](NC(=O)CC[C@@H](C)[C@H]1CC[C@H]2[C@@H]3CC[C@@H]4C[C@H](O)CC[C@]4(C)[C@H]3CC[C@]12C)C(=O)O` [Example 44, (S)-2-((R)-4-((3R,5R,8R,9S,10S,13R,14S,17R)-3-hydroxy-10,13-dimethyl-hexadecahydro-1H-cyclopenta[a]phenanthren-17-yl)pentanamido)-3-methylbutanoic acid], in data set [1], the “effect of inhibiting the binding between PreS1 and NTCP expressing cell lines by treatment concentration” value was “concentration dependent”; the “ability to inhibit the binding between PreS1 and NTCP expressing cell lines (bile acid series)” value was “relatively excellent”; the “relative fluorescence intensity compared to Comparative Example 1 (LCA)” value is “low and lower”. For the same molecule, in the data set on Jurkat cell line, the cytotoxicity entry was “barely observed”.
With `CC[C@@H](C)[C@H](NC(=O)CC[C@@H](C)[C@H]1CC[C@H]2[C@@H]3CC[C@@H]4C[C@H](O)CC[C@]4(C)[C@H]3CC[C@]12C)C(=O)O` [Example 1, (2S,3R)-2-((R)-4-((3R,5R,8R,9S,10S,13R,14S,17R)-3-hydroxy-10,13-dimethyl-hexadecahydro-1H-cyclopenta[a]phenanthren-17-yl)pentanamido)-3-methylpentanoic acid], in data set [1], the “effect of inhibiting the binding between PreS1 and NTCP expressing cell lines by treatment concentration” value is recorded as “concentration dependent”; the “ability to inhibit the binding between PreS1 and NTCP expressing cell lines (bile acid series)” value is listed as “relatively excellent”; the “relative fluorescence intensity compared to Comparative Example 1 (LCA)” value is “low and lower”. Further, the cytotoxicity entry in the data set with Jurkat cell line is reported as “barely observed”.
Consider `CC(C)[C@H](NC(=O)CC[C@@H](C)[C@H]1CC[C@H]2[C@@H]3[C@@H](O)C[C@@H]4C[C@H](O)CC[C@]4(C)[C@H]3CC[C@]12C)C(=O)O` [Example 3, (S)-2-((R)-4-((3R,5S,7S,8R,9S,10S,13R,14S,17R)-3,7-dihydroxy-10,13-dimethyl-hexadecahydro-1H-cyclopenta[a]phenanthren-17-yl)pentanamido)-3-methylbutanoic acid], for which the “ability to inhibit the binding between PreS1 and NTCP expressing cell lines (bile acid series)” value in data set [1] is recorded as “relatively excellent”. Further, the cytotoxicity entry in the data set on Jurkat cell line is recorded as “barely observed”.
